Data published in patent US6063804A, “Pyrrole compounds” (Adir et Compagnie, priority 1997, dated 2000).
Where two headings read alike, the source gives them in different places.

How the values were obtained:
[1] = biological target: T1, cyclooxygenase 1 (COX 1) (Mus musculus, UniProt P22437); test: Inhibitory activity in relation to COX 1 in peritoneal macrophages exposed to zymosan; assay type: cell-based; details: mice peritoneal macrophages
T1 construct: using mice peritoneal macrophages exposed to inflammatory stimuli (zymosan and LPS, respectively); endogenous in cells; host or cells: mouse peritoneal macrophages exposed to zymosan
T1 sequence (P22437 27-602): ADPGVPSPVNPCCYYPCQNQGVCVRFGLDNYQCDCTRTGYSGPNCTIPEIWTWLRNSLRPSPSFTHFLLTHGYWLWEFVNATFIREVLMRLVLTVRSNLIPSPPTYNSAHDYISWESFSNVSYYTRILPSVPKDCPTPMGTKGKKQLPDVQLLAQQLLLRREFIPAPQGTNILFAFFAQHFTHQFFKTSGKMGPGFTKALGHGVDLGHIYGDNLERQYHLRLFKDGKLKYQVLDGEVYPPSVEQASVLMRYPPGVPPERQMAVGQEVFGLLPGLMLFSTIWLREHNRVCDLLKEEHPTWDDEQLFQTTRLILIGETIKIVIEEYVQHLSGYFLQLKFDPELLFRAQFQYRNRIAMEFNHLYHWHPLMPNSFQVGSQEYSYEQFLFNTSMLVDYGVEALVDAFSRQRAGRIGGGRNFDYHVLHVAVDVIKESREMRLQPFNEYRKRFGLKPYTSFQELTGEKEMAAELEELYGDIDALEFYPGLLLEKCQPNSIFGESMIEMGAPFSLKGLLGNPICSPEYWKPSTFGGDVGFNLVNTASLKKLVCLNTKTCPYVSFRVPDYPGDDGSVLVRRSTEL
Protocol: (§1) The inhibitory activities of the compounds in relation to COX 1 and COX 2 were evaluated using mice peritoneal macrophages exposed to inflammatory stimuli (zymosan and LPS, respectively) in accordance with the method described by Tordjman el al., Biochimica et Biophysica Acta, 1995, 1256, 249-56.

[2] = system: IL1β production by THP1 line cells; test: Inhibition of production of IL1β by THP1 line cells stimulated with LPS; assay type: cell-based; details: Homo sapiens, THP-1
[3] = biological target: T2, cyclooxygenase 2 (COX 2) (Mus musculus, UniProt Q05769); test: Inhibitory activity in relation to COX 2 in peritoneal macrophages exposed to LPS; assay type: cell-based
T2 construct: using mice peritoneal macrophages exposed to inflammatory stimuli (zymosan and LPS, respectively); endogenous in cells; host or cells: mouse peritoneal macrophages exposed to LPS
T2 sequence (Q05769 18-604): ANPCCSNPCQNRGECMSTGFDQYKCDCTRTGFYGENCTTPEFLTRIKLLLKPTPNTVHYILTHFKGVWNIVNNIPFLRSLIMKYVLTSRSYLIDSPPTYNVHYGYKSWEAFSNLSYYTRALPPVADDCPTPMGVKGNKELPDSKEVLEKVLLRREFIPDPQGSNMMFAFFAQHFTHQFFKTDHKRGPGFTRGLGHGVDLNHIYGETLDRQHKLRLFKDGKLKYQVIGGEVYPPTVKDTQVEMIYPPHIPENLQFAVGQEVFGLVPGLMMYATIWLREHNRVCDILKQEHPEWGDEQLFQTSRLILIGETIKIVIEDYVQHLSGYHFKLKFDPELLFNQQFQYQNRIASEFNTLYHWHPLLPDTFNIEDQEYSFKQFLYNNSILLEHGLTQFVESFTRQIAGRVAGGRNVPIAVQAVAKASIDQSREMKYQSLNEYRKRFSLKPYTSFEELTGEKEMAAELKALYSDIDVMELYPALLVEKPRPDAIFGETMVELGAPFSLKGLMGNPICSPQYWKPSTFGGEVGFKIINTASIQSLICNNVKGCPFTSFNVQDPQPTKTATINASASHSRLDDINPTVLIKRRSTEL
Protocol: as §1

[4] = system: NO production in mouse peritoneal macrophages; test: Inhibition of NO production in peritoneal macrophages stimulated with LPS; assay type: cell-based; details: Peritoneal macrophage
[5] = system: production of prostaglandins; test: Inhibition of prostaglandin production in the carrageenin air-pouch model; assay type: in vivo; details: oral, mouse
Text: In addition, those compounds exert an activity in animals especially by inhibiting the production of prostaglandins in the carrageenin air-pouch model in the mouse (Whittle, B. J. R. et al., Nature, 1980, 284, 271-273; Masferrer, J. L. el al., Proc. Natl. Acad. Sci. USA, 1994, 91, 3228-3232).

IC50 [1]	SMILES	further results
100 nM	C1=CCc2c(-c3ccccc3)[nH]c(-c3ccccc3)c2C1 [Example 5, 1,3-diphenyl-4,7-dihydro-2H-isoindole]	–
–	CC1Cc2c(-c3ccccc3)[nH]c(-c3ccccc3)c2CC1C (stereo not shown) [Example 9, 1,3-diphenyl-5,6-dimethyl-4,5,6,7-tetrahydro-2H-isoindole]	IC50 [2]: ~1000 nM
100 to 500 nM	Fc1ccc(-c2[nH]c(-c3ccc(F)cc3)c3c2CCCC3)cc1 [Example 1, 1,3-di-(4-fluorophenyl)-4,5,6,7-tetrahydro-2H-isoindole]	IC50 ([3]; mice peritoneal macrophages, read-out: IC50 cox 2): 1 nM
100 to 500 nM	c1ccc(-c2[nH]c(-c3ccccc3)c3c2CCC3)cc1 [Example 4, 1,3-diphenyl-2,4,5,6-tetrahydrocyclopenta[c]pyrrole]	–
100 to 500 nM	c1ccc(-c2[nH]c(-c3ccccc3)c3c2CCCC3)cc1 [Example 2, 1,3-diphenyl-4,5,6,7-tetrahydro-2H-isoindole]	IC50 ([3]; read-out: IC50 cox 2, mice peritoneal macrophages): 1 nM

SMILES	IC50 [1]	further results
Fc1ccc(-c2[nH]c(-c3ccc(F)cc3)c3c2C2CCC3C2)cc1 [Example 19, 1,3-di-(4-fluorophenyl)-4,7-methano-4,5,6,7-tetrahydro-2H-isoindole]	100 nM	IC50 [4]: 2500 nM; ED50 [5]: 2.5 mg/kg
